{"source": "patent US20040010001A1", "about": "“Methods and compositions for modulating cell proliferation and cell death” (priority 1999, published 2004)", "type_in_all_cases": "cell-based", "key": {"[1]": {"system": "rat MAT-LyLu cells", "test": "Restoration of resistance by recombinant FGF in FGF-immunoprecipitated CM", "details": "added to CM depleted of both aFGF and bFGF", "method": "The study was performed using rat MAT-LyLu cells. The reversal in CM-induced resistance was detected by measuring the changes in BrdU incorporation in treated samples relative to control samples. The source of CM was lung histocultures for both aFGF and bFGF experiments. The study used two controls: no CM (left solid curves, empty circles); with CM (right solid curves, empty squares). Upper left: CM minus […] (filled square); CM minus aFGF plus r-aFGF (filled circles, overlaps with the right CM-control curve). Upper right: CM minus bFGF (filled square, overlaps with the left control curve); CM minus bFGF plus r-bFGF (filled circle, overlaps with the right CM control curve). Lower left: Both the CM minus aFGF and bFGF (filled square) and the CM minus aFGF and bFGF plus aFGF (filled circle) curves overlap with the left control curve. Lower center: CM minus aFGF and bFGF (filled square, overlaps with left control curve); CM minus aFGF and bFGF plus r-bFGF (filled circle). Lower right: CM minus aFGF and bFGF (filled square, overlaps with left control curve); CM minus aFGF and bFGF plus r-aFGF and r-bFGF (filled circle, overlaps with the right CM-control curve).\naFGF or bFGF was immunoprecipitated with their respective monoclonal antibody (1 microgram/ml), in the presence of Protein G PLUS/protein A agarose (Oncogene). This procedure reduced the bFGF level in the original CM to below the detection limit of 5 pg/ml by the ELISA (Oncogene), and the aFGF level in the concentrated CM to below the detection limit by Western blotting.\nThe third study determined whether aFGF and/or bFGF are required for the resistance. Endogenous aFGF and/or bFGF were removed from the active CM by immunoprecipitation, and then reconstituted the CM using recombinant proteins. […] The fifth study confirmed that aFGF and bFGF were the main cause of chemoresistance, by using only r-aFGF and r-bFGF (i.e., without the immunoprecipitated CM) to induce resistance (FIG. 3). When given alone, r-aFGF had no effect whereas r-bFGF induced a concentration-dependent resistance. […]"}, "[2]": {"system": "Human prostate PC3", "test": "FGF-induced resistance, inhibition of BrdU incorporation", "details": "cell lines derived from solid tumors; 1 ng/ml r-aFGF plus 1 ng/ml r-bFGF vs 50 ng/ml r-bFGF alone", "method": "Prior to drug treatment, cells were incubated for 4 days with tumor CM or with r-aFGF ad/or r-bFGF-containing medium, supplemented with 1% FBS (final protein concentration adjusted to 2 mg/ml). The medium was renewed every other day.\nThe antiproliferative drug effect in histocultures was measured as inhibition of ^3H-thymidine incorporation quantified by autoradiography (Yen, W. C. et al. (1996) Pharm. Res. 13:1305-1312) and, for monolayers, as inhibition of BrdU incorporation or as reduction of total proteins by the sulforhodamine B assay (Au, J. L.-S. et al. (1998) Cancer Res. 58:2141-2148). For the latter, the two assays yielded qualitatively similar results. Cell kill induced by 96-hour drug treatment was monitored by the release of LDH into the culture medium. LDH activity was monitored by the conversion of tetrazolium to formazan (detected at 490 nm).\nThe experimental conditions are described briefly below. Cells were pretreated with human recombinant r-aFGF and/or r-bFGF for 96 hours and then with drugs for 96 hours. For the studies on cells derived from the human prostate, lung, pharynx, colon and breast cancer cells, the drug effect was determined by the inhibition of BrdU incorporation. For the study on the human leukemic cells, the drug effect was measured by the MTT assay, which measures the number of metabolically active cells (Alley, M. C. et al (1988) Cancer Res 48:589-601)."}, "[3]": {"system": "Human prostate PC3 tumor cells", "test": "Drug treatment and extracellular bFGF (ELISA), LDH release, cell number", "details": "for Extracellular LDH, % of control / Extracellular bFGF, % of control / Extracellular concentration bFGF / bFGF:LDH ratio: 72 hours", "method": "The experimental conditions are described briefly below. […] The remaining cell number at the end of treatment was counted using a Coulter counter. The extracellular bFGF concentration was measured using ELISA. The release of lactate dehydrogenase (LDH) into the extracellular culture medium is indicative of cell death and gives a measure of the release of cellular content into the culture medium. If the increase in extracellular bFGF level is due to the release of bFGF upon cell death and lysis, the increase in bFGF will be accompanied by an increase in LDH in the same extent. This would result in an higher bFGF level and a constant bFGF-to-LDH ratio. On the other hand, an increase in extracellular bFGF due to an increase in bFGF production and release of bFGF from cells by processes other than cell lysis will result in an higher bFGF level and an higher bFGF-to-LDH ratio."}, "[4]": {"system": "Human prostate PC3 tumor cells", "test": "aFGF/bFGF-induced resistance and reversal by suramin, sulforhodamine B assay", "method": "The experimental conditions are described briefly below. […] Cell number was measured using the sulforhodamine B assay which measures the total protein concentration. […] The FGF-induced resistance was dependent on the FGF concentrations, with a higher resistance at higher FGF concentrations."}, "[5]": {"system": "human prostate cancer PC3 cells", "test": "Differential display of genes altered by bFGF treatment", "method": "Differential display was used to identify the down-stream genes that are involved in the bFGF-induced multidrug resistance. […] By this method, the genes that were altered by bFGF treatment in PC3 cells but not in FaDu cells were identified. The identified genes are likely to be associated with the bFGF-induced multidrug resistance.\nFor differential display, total RNA was isolated from the cells and reverse-transcripted in single strand cDNA. PCR was performed using a pair of T and P primers. […] Five of these bands were reproducibly altered in PC3 cells, but not in FaDu cells. These bands were cut from the gels, reamplified and cloned into pGEM-T vector. Nine different clones were identified and sequenced. The gene sequence was compared to the data in the NCBI GenBank. […] Primers were synthesized for drug resistant cancer cells. Among the nine clones, five were altered reproducibly by bFGF treatment while bFGF had no effect on the remaining four clones. The expression of two of the known genes, TSC22 and VEGF, were increased by 20 to 40%, whereas the expression of the three new genes (temporarily named FSC-1, FSC-2, and FSC-3) were induced by 65%, 300%, and 40%. TSC22 and VEGF are not known to be regulated by bFGF."}, "[6]": {"details": "no suramin, relative to control"}}, "note": "Read-outs that look alike come from different tables or passages of the source.", "data": [{"compound": "r-aFGF: human recombinant aFGF, identical to the 14 kDa human aFGF except for the extra methionine at the amino terminus", "values": [{"measurement": "induction of resistance", "setting": "[1]", "result": "did not induce resistance"}, {"measurement": "amplification of the r-bFGF effect by r-aFGF", "setting": "[2]", "result": "more than 50 fold"}]}, {"compound": "N.N.[Cl][Pt][Cl]", "note": "[Cisplatin]", "values": [{"measurement": "Remaining cell number at 72 hours (% of control)", "setting": "[3]; drug concentration 2000 NM", "result": 86, "unit": "%"}, {"measurement": "Remaining cell number at 72 hours × 10^6", "setting": "[3]; drug concentration 2000 NM", "result": "1.9 × 10^6"}, {"measurement": "Extracellular LDH, % of control", "setting": "[3]; drug concentration 2000 NM", "result": "169 % of control"}, {"measurement": "Extracellular bFGF, % of control", "setting": "[3]; drug concentration 2000 NM", "result": "267 % of control"}, {"measurement": "Extracellular concentration bFGF", "setting": "[3]; drug concentration 2000 NM", "result": 5.87, "unit": "pg/mL"}, {"measurement": "bFGF:LDH ratio", "setting": "[3]; drug concentration 2000 NM", "result": 1.58}, {"measurement": "Remaining cell number at 72 hours (% of control)", "setting": "[3]; drug concentration 6000 NM", "result": 45, "unit": "%"}, {"measurement": "Remaining cell number at 72 hours × 10^6", "setting": "[3]; drug concentration 6000 NM", "result": "1.0 × 10^6"}, {"measurement": "Extracellular LDH, % of control", "setting": "[3]; drug concentration 6000 NM", "result": "534 % of control"}, {"measurement": "Extracellular bFGF, % of control", "setting": "[3]; drug concentration 6000 NM", "result": "1561 % of control"}, {"measurement": "Extracellular concentration bFGF", "setting": "[3]; drug concentration 6000 NM", "result": 95.9, "unit": "pg/mL"}, {"measurement": "bFGF:LDH ratio", "setting": "[3]; drug concentration 6000 NM", "result": 2.92}, {"measurement": "Remaining cell number at 72 hours (% of control)", "setting": "[3]; drug concentration 20000 NM", "result": 18, "unit": "%"}, {"measurement": "Remaining cell number at 72 hours × 10^6", "setting": "[3]; drug concentration 20000 NM", "result": "0.4 × 10^6"}, {"measurement": "Extracellular LDH, % of control", "setting": "[3]; drug concentration 20000 NM", "result": "563 % of control"}, {"measurement": "Extracellular bFGF, % of control", "setting": "[3]; drug concentration 20000 NM", "result": "1641 % of control"}, {"measurement": "Extracellular concentration bFGF", "setting": "[3]; drug concentration 20000 NM", "result": 101, "unit": "pg/mL"}, {"measurement": "bFGF:LDH ratio", "setting": "[3]; drug concentration 20000 NM", "result": 2.88}, {"measurement": "Resistance, Folds, aFGF 0.3 ng/ml + bFGF 1 ng/ml", "setting": "[4]; [6]", "result": 1.76, "unit": "Folds"}, {"measurement": "Resistance, Folds, aFGF 1 ng/ml + bFGF 3 ng/ml", "setting": "[4]; [6]", "result": 3.69, "unit": "Folds"}, {"measurement": "IC50", "setting": "[4]; read-out: IC50, Control (drug treatment only, without FGF treatment), No suramin, drug 96 hours", "result": 2.76, "unit": "µM"}, {"measurement": "IC50", "setting": "[4]; read-out: IC50, Control (without FGF treatment), Suramin, 15 μM, drug 96 hours with 15 μM suramin", "result": 2.69, "unit": "µM"}, {"measurement": "IC50", "setting": "[4]; read-out: IC50, aFGF 0.3 ng/ml + bFGF 1 ng/ml, No suramin, FGF pretreatment 96 hours, drug 96 hours", "result": 4.85, "unit": "µM"}, {"measurement": "IC50", "setting": "[4]; read-out: IC50, aFGF 0.3 ng/ml + bFGF 1 ng/ml, With suramin, FGF pretreatment 96 hours, drug 96 hours with 15 micromolar suramin", "result": 3.09, "unit": "µM"}, {"measurement": "IC50", "setting": "[4]; read-out: IC50, aFGF 1 ng/ml + bFGF 3 ng/ml, No suramin, FGF pretreatment 96 hours, drug 96 hours", "result": 10.2, "unit": "µM"}, {"measurement": "IC50", "setting": "[4]; read-out: IC50, aFGF 1 ng/ml + bFGF 3 ng/ml, With suramin, FGF pretreatment 96 hours, drug 96 hours with 15 micromolar suramin", "result": 3.01, "unit": "µM"}]}, {"compound": "bFGF: basic Fibroblast Growth Factor used for treatment of PC3 cells", "values": [{"measurement": "induction of expression of FSC-1", "setting": "[5]", "result": 65, "unit": "%"}, {"measurement": "induction of expression of FSC-2", "setting": "[5]", "result": 300, "unit": "%"}, {"measurement": "induction of expression of FSC-3", "setting": "[5]", "result": 40, "unit": "%"}]}]}
